Results from ChEMBL document CHEMBL5137008, “Recent advances of antitumor shikonin/alkannin derivatives: A comprehensive overview focusing on structural classification, synthetic approaches, and mechanisms of action” (Eur J Med Chem, 2022).
≈ marks a conversion by molar mass, not a printed value. Blank lines part the entries; values can stand above or below the compound they belong to.

Assays:
MOLT-4 = assay: Anticancer activity against human MOLT-4 cells assessed as inhibition of cell proliferation incubated for 72 hrs by SRB assay; format: functional, cell-based; conditions: MOLT-4, 72 h
A549 [1] = assay: Anticancer activity against human A549 cells assessed as inhibition of cell proliferation incubated for 72 hrs by SRB assay; format: functional, cell-based; conditions: A549, 72 h
SJRH30 = assay: Anticancer activity against human Rh30 cells assessed as inhibition of cell proliferation incubated for 72 hrs by SRB assay; format: functional, cell-based; conditions: SJRH30, 72 h
[2] = Anticancer activity against human A875 cells assessed as inhibition of cell growth incubated for 24 hrs by MTT assay; format: functional, cell-based; conditions: A875, 24 h
HepG2 [3] = assay: Anticancer activity against human HepG2 cells assessed as inhibition of cell growth incubated for 24 hrs by MTT assay; format: functional, cell-based; conditions: HepG2, 24 h
[4] = Cytotoxicity against human L02 cells assessed as inhibition of cell growth incubated for 24 hrs by MTT assay; format: toxicity, cell-based
[5] = Antitubulin activity against bovine brain tubulin polymerization preincubated with compound followed by GTP addition by turbidimetry-based spectrophotometric method; design: species or system Bos taurus
HeLa [6] = assay: cells; conditions: Homo sapiens, 24 h
SW872 = assay: Anticancer activity against human SW872 cells assessed as inhibition of cell growth incubated for 72 hrs by MTT assay; format: functional, cell-based; conditions: SW872, 72 h
[7] = Anticancer activity against human A875 cells assessed as inhibition of cell growth incubated for 72 hrs by MTT assay; format: functional, cell-based; conditions: A875, 72 h
A549 [8] = assay: Anticancer activity against human A549 cells assessed as inhibition of cell growth incubated for 72 hrs by MTT assay; format: functional, cell-based; conditions: A549, 72 h
HeLa [9] = assay: Antiproliferative activity against human HeLa cells assessed as inhibition of cell proliferation incubated for 20 hrs by MTT assay; format: functional, cell-based
HepG2 [10] = assay: Antiproliferative activity against human HepG2 cells assessed as inhibition of cell proliferation incubated for 20 hrs by MTT assay; format: functional, cell-based; conditions: HepG2, 20 h
MCF7 = assay: Antiproliferative activity against human MCF7 cells assessed as inhibition of cell proliferation incubated for 20 hrs by MTT assay; format: functional, cell-based; conditions: MCF7, 20 h
[11] = Antiproliferative activity against human BGC cells assessed as inhibition of cell proliferation incubated for 20 hrs by MTT assay; format: functional, cell-based
A549 [12] = assay: Antiproliferative activity against human A549 cells assessed as inhibition of cell proliferation incubated for 20 hrs by MTT assay; format: functional, cell-based; conditions: A549, 20 h
L02 = assay: Antiproliferative activity against human L02 cells assessed as inhibition of cell proliferation incubated for 20 hrs by MTT assay; format: functional, cell-based; conditions: L02, 20 h
U-87 MG = assay: Anticancer activity against human U87 cells incubated for 48 hrs by MTT assay; format: functional, cell-based, U-87MG ATCC
SMMC-7721 = assay: Anticancer activity against human SMMC-7721 cells incubated for 48 hrs by MTT assay; format: functional, cell-based; conditions: SMMC-7721, 48 h
SGC-7901 = assay: Anticancer activity against human SGC-7901 cells incubated for 48 hrs by MTT assay; format: functional, cell-based; conditions: SGC-7901, 48 h, read-out: IC50
MGC-803 = assay: Anticancer activity against human MGC-803 cells incubated for 48 hrs by MTT assay; format: functional, cell-based; conditions: MGC-803, 48 h
[13] = Cytotoxicity against human L02 cells incubated for 48 hrs by MTT assay; format: toxicity, cell-based
A549 [14] = assay: Antiproliferative activity against human A549 cells assessed as reduction in cell viability incubated for 24 hrs by MTT assay; format: functional, cell-based; conditions: A549, 24 h
HeLa [15] = assay: Antiproliferative activity against human HeLa cells assessed as reduction in cell viability incubated for 24 hrs by MTT assay; format: functional, cell-based
HepG2 [16] = assay: Antiproliferative activity against human HepG2 cells assessed as reduction in cell viability incubated for 24 hrs by MTT assay; format: functional, cell-based; conditions: HepG2, 24 h
[17] = Cytotoxicity against human L02 cells assessed as reduction in cell viability incubated for 24 hrs by MTT assay; format: toxicity, cell-based
L1210 = assay: Anticancer activity against mouse L1210 cells; format: functional; conditions: read-out: ED50 (the source's name)
A549 [18] = assay: Anticancer activity against human A549 cells; format: functional; conditions: read-out: ED50 (the source's name)
Sarcoma-180 = assay: Antitumor activity against mouse Sarcoma-180 cells xenografted in ip dosed ICR mouse assessed as tumor growth inhibition rate administered daily for 7 days relative to control; format: functional; conditions: time 7 day

Structure (SMILES): CC(C)=CC[C@@H](OC(=O)C(Cc1ccccc1)N1C(=O)c2ccccc2C1=O)C1=CC(=O)c2c(O)ccc(O)c2C1=O (stereo partly drawn)
- IC50 (HeLa [9]): 2920 nM
- IC50 (HepG2 [10]): 1690 nM
- IC50 (MCF7): 3050 nM
- IC50 [11]: > 100000 nM
- IC50 (A549 [12]): > 100000 nM
- IC50 (L02): > 100000 nM

Structure (SMILES): CC(C)=CC[C@@H](OC(=O)[C@@H](Cc1ccccc1)N1C(=O)C2C3C=CC(C3)C2C1=O)C1=CC(=O)c2c(O)ccc(O)c2C1=O (stereo partly drawn)
- IC50 (HeLa [9]): 1260 nM
- IC50 (HepG2 [10]): 1920 nM
- IC50 (MCF7): 3550 nM
- IC50 [11]: 11600 nM
- IC50 (A549 [12]): > 100000 nM
- IC50 (L02): > 100000 nM

Structure (SMILES): CC(C)=CC[C@@H](OC(=O)CCC(=O)Nc1ccc(Oc2ccccc2)cc1)C1=CC(=O)c2c(O)ccc(O)c2C1=O
- IC50 (U-87 MG): 3800 nM
- IC50 (SMMC-7721): 20600 nM
- IC50 (SGC-7901): 4100 nM
- IC50 (MGC-803): 4100 nM
- IC50 at 48 h [13]: > 50000 nM

Structure (SMILES): CC(C)=CC[C@@H](OC(=O)C1CC1)C1=CC(=O)c2c(O)ccc(O)c2C1=O
- IC50 (A549 [14]): 3730 nM
- IC50 (HeLa [15]): 3470 nM
- IC50 (HepG2 [16]): 759 nM
- IC50 at 24 h [17]: > 100000 nM

Structure (SMILES): CCCO/N=C/c1cc(O)c2c(c1O)C(=O)C=CC2=O
- EC50 (L1210): 0.107 µg/mL (≈ 0.389 µM)
- EC50 (A549 [18]): > 10 µg/mL
- T/C (Sarcoma-180): 229%

More lines, main results first:

- IC50 (MOLT-4): 300 nM
- IC50 (A549 [1]): 460 nM
Structure (SMILES): CC(C)=CC[C@@H](OC(=O)c1ccco1)C1=CC(=O)c2c(O)ccc(O)c2C1=O
- IC50 (SJRH30): 470 nM

- IC50 (HepG2 [3]): 430 nM
- IC50 [5]: 16900 nM
- IC50 (HeLa [6]): 4440 nM
Structure (SMILES): CC(C)=CC[C@@H](OC(=O)CCCOc1ccc(Cl)cc1C)C1=CC(=O)c2c(O)ccc(O)c2C1=O
- IC50 [2]: 1520 nM
- IC50 at 24 h [4]: > 100000 nM

- IC50 (HepG2 [3]): 426 nM
- IC50 [5]: 4310 nM
- IC50 (HeLa [6]): 4310 nM
Structure (SMILES): CC(C)=CC[C@@H](OC(=O)Cc1ccc(Oc2ccccc2)cc1)C1=CC(=O)c2c(O)ccc(O)c2C1=O
- IC50 [2]: 1240 nM
- IC50 at 24 h [4]: > 100000 nM

- IC50 (SW872): 690 nM
- IC50 (A549 [8]): 1620 nM
Structure (SMILES): CC(C)=CC[C@@H](OC(=O)/C=C/c1cccc(C(F)(F)F)c1)C1=CC(=O)c2c(O)ccc(O)c2C1=O
- IC50 [7]: 650 nM

- IC50 (SW872): 360 nM
- IC50 (A549 [8]): 2100 nM
Structure (SMILES): CC(C)=CC[C@@H](OC(=O)/C=C/c1ccc(F)c(F)c1)C1=CC(=O)c2c(O)ccc(O)c2C1=O
- IC50 [7]: 550 nM
